From paper PMC4669708 (Cell Death & Disease, 2015)

Experiments:
Assay in all cases: c-ponatinib pulldown LC-MS/MS
Format in all cases: binding
CDK5 = CDK5 (Homo sapiens, UniProt Q00535)
How it was run: (§1)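 Read-out: interaction P-value combining Mascot scores, Phenyx scores and spectral counts (Fisher's method), plus fold reduction of median spectral counts on free-compound competition. Proteins were enriched from 10 mg cell lysate on c-ponatinib beads, then trypsin-digested for LC-MS/MS.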

MAP4K2 = molecular target: T1, MAP4K2 (Homo sapiens, UniProt Q12851)
T1 sequence (Q12851 1-820): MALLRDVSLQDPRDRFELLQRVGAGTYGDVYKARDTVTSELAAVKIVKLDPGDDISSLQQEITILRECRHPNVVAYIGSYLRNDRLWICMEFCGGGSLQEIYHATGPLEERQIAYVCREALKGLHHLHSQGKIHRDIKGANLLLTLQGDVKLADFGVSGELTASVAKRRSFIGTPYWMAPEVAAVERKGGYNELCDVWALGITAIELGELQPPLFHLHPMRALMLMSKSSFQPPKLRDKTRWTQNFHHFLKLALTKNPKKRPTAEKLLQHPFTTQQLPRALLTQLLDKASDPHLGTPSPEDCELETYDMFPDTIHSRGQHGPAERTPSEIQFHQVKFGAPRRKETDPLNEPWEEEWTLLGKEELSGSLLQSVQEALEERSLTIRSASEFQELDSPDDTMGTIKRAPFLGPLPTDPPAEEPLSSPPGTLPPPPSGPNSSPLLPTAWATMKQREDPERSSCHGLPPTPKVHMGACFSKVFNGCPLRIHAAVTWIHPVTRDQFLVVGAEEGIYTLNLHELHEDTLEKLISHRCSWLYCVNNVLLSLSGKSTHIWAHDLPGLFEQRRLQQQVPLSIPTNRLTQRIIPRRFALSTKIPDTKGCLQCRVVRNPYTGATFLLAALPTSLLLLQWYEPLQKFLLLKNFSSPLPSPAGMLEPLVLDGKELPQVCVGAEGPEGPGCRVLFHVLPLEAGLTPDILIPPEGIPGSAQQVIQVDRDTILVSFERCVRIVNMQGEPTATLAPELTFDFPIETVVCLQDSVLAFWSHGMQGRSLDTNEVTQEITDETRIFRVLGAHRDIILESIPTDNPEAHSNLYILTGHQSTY
How it was run: as §1

MAPK12 = molecular target: T2, MAPK12 (Homo sapiens, UniProt P53778)
T2 sequence (P53778 1-367): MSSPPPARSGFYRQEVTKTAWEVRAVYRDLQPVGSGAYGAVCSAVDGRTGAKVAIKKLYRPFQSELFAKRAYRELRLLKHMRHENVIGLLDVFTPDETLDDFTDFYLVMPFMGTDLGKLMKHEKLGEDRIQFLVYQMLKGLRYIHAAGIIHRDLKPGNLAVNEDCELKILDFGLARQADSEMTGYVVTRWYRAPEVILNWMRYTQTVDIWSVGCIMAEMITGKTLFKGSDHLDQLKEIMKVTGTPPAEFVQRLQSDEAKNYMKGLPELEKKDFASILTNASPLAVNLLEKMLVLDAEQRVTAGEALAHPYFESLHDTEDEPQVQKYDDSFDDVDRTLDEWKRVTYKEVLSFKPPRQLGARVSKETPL
How it was run: as §1

TCP1 = TCP1 (Homo sapiens, UniProt P17987)
Chain of TCP1 (P17987 whole entry): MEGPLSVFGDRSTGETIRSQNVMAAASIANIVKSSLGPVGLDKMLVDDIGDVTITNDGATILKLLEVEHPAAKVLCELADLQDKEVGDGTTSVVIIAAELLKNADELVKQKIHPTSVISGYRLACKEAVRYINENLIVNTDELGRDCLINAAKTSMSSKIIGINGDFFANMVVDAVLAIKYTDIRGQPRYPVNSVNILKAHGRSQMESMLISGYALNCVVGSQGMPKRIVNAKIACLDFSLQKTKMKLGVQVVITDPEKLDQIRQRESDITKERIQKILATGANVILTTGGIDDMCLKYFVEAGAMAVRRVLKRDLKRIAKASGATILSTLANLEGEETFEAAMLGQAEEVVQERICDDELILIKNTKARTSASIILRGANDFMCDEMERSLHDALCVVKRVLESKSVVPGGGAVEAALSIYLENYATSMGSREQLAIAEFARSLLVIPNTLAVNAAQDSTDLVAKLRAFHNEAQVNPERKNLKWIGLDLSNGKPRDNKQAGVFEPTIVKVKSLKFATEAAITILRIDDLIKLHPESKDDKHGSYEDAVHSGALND
How it was run: as §1

TYK2 = TYK2 (Homo sapiens, UniProt P29597)
Chain of TYK2 (P29597 whole entry): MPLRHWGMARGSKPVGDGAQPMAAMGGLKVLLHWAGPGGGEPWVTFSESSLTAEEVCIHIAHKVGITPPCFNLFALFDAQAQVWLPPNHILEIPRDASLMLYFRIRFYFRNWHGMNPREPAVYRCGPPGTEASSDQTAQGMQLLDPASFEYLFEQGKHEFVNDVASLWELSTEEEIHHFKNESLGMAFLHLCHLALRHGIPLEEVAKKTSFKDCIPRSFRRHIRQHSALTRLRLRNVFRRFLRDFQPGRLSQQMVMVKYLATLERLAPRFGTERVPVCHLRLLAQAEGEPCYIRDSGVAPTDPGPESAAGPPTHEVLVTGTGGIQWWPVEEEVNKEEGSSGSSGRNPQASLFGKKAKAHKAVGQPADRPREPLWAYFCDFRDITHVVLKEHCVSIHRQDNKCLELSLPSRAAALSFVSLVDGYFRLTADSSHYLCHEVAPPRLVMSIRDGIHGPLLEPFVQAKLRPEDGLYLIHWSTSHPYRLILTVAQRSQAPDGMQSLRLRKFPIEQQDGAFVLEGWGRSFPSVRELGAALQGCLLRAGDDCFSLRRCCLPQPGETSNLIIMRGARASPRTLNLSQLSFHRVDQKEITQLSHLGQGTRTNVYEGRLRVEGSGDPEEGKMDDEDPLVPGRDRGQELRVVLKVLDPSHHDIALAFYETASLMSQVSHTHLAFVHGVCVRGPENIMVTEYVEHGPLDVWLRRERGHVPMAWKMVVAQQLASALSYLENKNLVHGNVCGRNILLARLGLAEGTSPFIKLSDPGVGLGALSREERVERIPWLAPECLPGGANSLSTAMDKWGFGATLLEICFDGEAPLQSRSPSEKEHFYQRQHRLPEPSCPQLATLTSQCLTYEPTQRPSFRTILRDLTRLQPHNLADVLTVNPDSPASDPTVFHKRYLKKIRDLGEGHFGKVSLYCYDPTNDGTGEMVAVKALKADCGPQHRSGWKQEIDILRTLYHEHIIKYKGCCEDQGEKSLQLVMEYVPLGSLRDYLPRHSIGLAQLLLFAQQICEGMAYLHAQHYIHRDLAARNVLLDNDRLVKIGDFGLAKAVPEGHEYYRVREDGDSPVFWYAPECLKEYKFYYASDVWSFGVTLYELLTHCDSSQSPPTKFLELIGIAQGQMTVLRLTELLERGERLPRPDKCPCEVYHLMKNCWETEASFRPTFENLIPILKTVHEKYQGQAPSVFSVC
How it was run: as §1

Chain of CDK5 (Q00535 whole entry): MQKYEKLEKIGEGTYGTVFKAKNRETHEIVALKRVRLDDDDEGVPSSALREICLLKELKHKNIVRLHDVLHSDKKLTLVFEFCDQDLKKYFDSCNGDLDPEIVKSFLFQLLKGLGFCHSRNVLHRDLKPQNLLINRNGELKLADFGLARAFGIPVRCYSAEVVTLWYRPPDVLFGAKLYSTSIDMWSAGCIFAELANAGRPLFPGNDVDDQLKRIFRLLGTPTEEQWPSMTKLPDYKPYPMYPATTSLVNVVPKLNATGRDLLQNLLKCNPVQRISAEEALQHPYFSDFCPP

Cc1ccc(C(=O)Nc2ccc(CN3CCN(CCCN)CC3)c(C(F)(F)F)c2)cc1C#Cc1cnc2cccnn12 [c-ponatinib]
Av. SC comp. (CDK5; + free ponatinib): 2.75 | Total SC comp. (CDK5; + free ponatinib): 11 | Av. SC (CDK5; no competitor): 7.25 | Total SC (CDK5; no competitor): 29 | Av. SC comp. (MAP4K2; + free ponatinib): 0 | Total SC comp. (MAP4K2; + free ponatinib): 0 | Av. SC (MAP4K2; no competitor): 2.5 | Total SC (MAP4K2; no competitor): 10 | Av. SC comp. (MAPK12; + free ponatinib): 3.75 | Total SC comp. (MAPK12; + free ponatinib): 15 | Av. SC (MAPK12; no competitor): 10.75 | Total SC (MAPK12; no competitor): 43 | Av. SC comp. (TCP1; + free ponatinib): 1.5 | Total SC comp. (TCP1; + free ponatinib): 6 | Av. SC (TCP1; no competitor): 5 | Total SC (TCP1; no competitor): 20 | Av. SC comp. (TYK2; + free ponatinib): 0 | Total SC comp. (TYK2; + free ponatinib): 0 | Av. SC (TYK2; no competitor): 14 | Total SC (TYK2; no competitor): 56
